{"source": "patent US20260217706A1", "about": "“HETEROCYCLIC COMPOUNDS, PREPARATION METHOD THEREFOR AND USE THEREOF” (GUANGZHOU YUFAN NANTU BIOTECHNOLOGIES CO., LTD, priority 2023, published 2026)", "data": [{"molecular_target": "CBL-B protein (Homo sapiens, UniProt Q13191)", "sequence (Q13191 whole entry)": "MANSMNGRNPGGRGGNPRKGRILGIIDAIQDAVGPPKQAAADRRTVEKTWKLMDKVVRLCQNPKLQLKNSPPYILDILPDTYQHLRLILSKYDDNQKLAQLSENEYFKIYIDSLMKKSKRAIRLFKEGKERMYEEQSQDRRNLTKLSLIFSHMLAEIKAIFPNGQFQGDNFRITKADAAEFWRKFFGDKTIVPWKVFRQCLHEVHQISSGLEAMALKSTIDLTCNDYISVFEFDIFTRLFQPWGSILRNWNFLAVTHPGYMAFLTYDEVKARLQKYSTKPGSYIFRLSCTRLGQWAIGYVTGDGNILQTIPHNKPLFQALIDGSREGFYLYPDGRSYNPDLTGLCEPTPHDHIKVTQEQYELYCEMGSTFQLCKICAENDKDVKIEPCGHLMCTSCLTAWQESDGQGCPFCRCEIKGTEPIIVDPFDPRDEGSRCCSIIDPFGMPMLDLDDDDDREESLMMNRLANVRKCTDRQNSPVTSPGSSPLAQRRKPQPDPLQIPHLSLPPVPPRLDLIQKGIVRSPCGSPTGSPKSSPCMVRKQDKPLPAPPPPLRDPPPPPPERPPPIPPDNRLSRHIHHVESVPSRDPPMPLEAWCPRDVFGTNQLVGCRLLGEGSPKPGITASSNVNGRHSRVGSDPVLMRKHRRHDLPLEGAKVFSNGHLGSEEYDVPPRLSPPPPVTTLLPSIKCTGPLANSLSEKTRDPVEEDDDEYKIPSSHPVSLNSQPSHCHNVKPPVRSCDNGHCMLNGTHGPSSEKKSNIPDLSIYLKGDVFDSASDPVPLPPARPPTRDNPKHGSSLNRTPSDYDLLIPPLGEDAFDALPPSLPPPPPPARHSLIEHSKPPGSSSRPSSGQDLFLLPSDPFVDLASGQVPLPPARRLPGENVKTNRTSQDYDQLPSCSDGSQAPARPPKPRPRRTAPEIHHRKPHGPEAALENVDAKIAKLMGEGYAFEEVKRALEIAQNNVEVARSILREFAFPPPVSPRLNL", "assay": "CBL-B binding experiment (Streptavidin-Tb cryptate / Ligand L1 displacement)", "conditions": "8 nM CBL-B protein, 25° C., 60 minutes; Ki=Relative IC50/2", "procedure": "The reaction system mainly includes 1× buffer, 20 mM HEPES pH 7.5, 150 mM NaCl, 0.01% Triton X-100, 0.5 mM TCEP, and 0.1% ug/ml BSA. The compound is continuously diluted with DMSO for 10 concentration points, and 150 nL is transferred to the experimental plate. The experimental reaction begins after adding 8 nM of CBL-B protein and the reaction is carried out at 25° C. for 60 minutes. […] After an additional 60 minutes of incubation at room temperature, the experimental plate is read using an EnVision plate. The luminescence signal values were converted to percentage inhibition rates. Inhibition %=(Sample value−Maximum value)/(Minimum value−Maximum value)×100. The minimum value refers to the measured value in the wells without CBL-B protein but with DMSO and Ligand, while the maximum value refers to the measured value in the wells with DMSO, CBL-B protein, and Ligand. The IC50 values are calculated by XLFit (version 5.3.1.3) in Excel. Equation: Y=Bottom+(Top−Bottom)/(1+(IC50/X)^HillSlope); Ki=Relative IC50/2.", "units": {"Ki": "nM"}, "values": [{"smiles": "C[C@H]1CCCN(Cc2cc3c(S(C)(=O)=O)cn(-c4cccc(C5(Cc6nncn6C)COC5)c4)c(=O)c3[nH]2)C1", "note": "[Compound T089, 2-[[(3S)-3-methyl-1-piperidyl]methyl]-4-methylsulfonyl-6-[3-[3-[(4-methyl-1,2,4-triazol-3-yl)methyl]oxetan-3-yl]phenyl]-1H-pyrrolo[2,3-c]pyridin-7-one]", "Ki": "< 50"}, {"smiles": "C[C@H]1CCCN(Cc2cc3c(Br)cn(-c4cccc(C5(Cc6nncn6C)COC5)c4)c(=O)c3[nH]2)C1", "note": "[Compound T090, (S)-4-bromo-6-(3-(3-((4-methyl-4H-1,2,4-triazol-3-yl)methyl)oxetan-3-yl)phenyl)-2-((3-methylpiperidin-1-yl)methyl)-1,6-dihydro-7H-pyrrolo[2,3-c]pyridin-7-one]", "Ki": "< 50"}, {"smiles": "CC(C)C1CN(C)CCN1Cc1cc2c(C3CC3)cn(-c3cccc([C@]4(c5nncn5C)C[C@@H](C)C4)c3)c(=O)c2[nH]1", "note": "(stereo partly shown) [Compound T094, 4-cyclopropyl-2-((2-isopropyl-4-methylpiperazin-1-yl)methyl)-6-(3-((1s,3s)-3-methyl-1-(4-methyl-4H-1,2,4-triazol-3-yl)cyclobutyl)phenyl)-1,6-dihydro-7H-pyrrolo[2,3-c]pyridin-7-one]", "Ki": "< 50"}, {"smiles": "CC(C)[C@@H]1CN(C)CCN1Cc1cc2c(C3CC3)cn(-c3cccc([C@]4(c5nncn5C)C[C@@H](C)C4)c3)c(=O)c2[nH]1", "note": "[Compound T095, 4-cyclopropyl-2-(((R)-2-isopropyl-4-methylpiperazin-1-yl)methyl)-6-(3-((1s,3S)-3-methyl-1-(4-methyl-4H-1,2,4-triazol-3-yl)cyclobutyl)phenyl)-1,6-dihydro-7H-pyrrolo[2,3-c]pyridin-7-one]", "Ki": "< 50"}, {"smiles": "CC(C)CN(Cc1cc2c(C(F)(F)F)cn(-c3cccc(C4(c5nncn5C)CCC4)c3)c(=O)c2[nH]1)CC(C)C", "note": "[Compound T098, 2-[(diisobutylamino)methyl]-6-[3-[1-(4-methyl-1,2,4-triazol-3-yl)cyclobutyl]phenyl]-4-(trifluoromethyl)-1H-pyrrolo[2,3-c]pyridin-7-one]", "Ki": "< 50"}, {"smiles": "COCC1(NCc2cc3c(C(F)(F)F)cn(-c4cccc([C@]5(c6nncn6C)C[C@H](OC)C5)c4)c(=O)c3[nH]2)CC1", "note": "[Compound T099, 6-(3-((1r,3r)-3-methoxy-1-(4-methyl-4H-1,2,4-triazol-3-yl)cyclobutyl)phenyl)-2-(((1-(methoxymethyl)cyclopropyl)amino)methyl)-4-(trifluoromethyl)-1,6-dihydro-7H-pyrrolo[2,3-c]pyridin-7-one]", "Ki": "< 50"}, {"smiles": "COCC1(NCc2cc3c(C(F)(F)F)cn(-c4cccc([C@]5(c6nncn6C)C[C@@H](OC)C5)c4)c(=O)c3[nH]2)CC1", "note": "[Compound T100, 6-(3-((1s,3s)-3-methoxy-1-(4-methyl-4H-1,2,4-triazol-3-yl)cyclobutyl)phenyl)-2-(((1-(methoxymethyl)cyclopropyl)amino)methyl)-4-(trifluoromethyl)-1,6-dihydro-7H-pyrrolo[2,3-c]pyridin-7-one]", "Ki": "< 50"}, {"smiles": "C[C@H]1CCCN(Cc2cc3c(C(F)(F)F)cn(-c4cc(F)cc([C@]5(c6nncn6C)C[C@@H](C)C5)c4)c(=O)c3[nH]2)C1", "note": "[Compound T101, 6-(3-fluoro-5-((1s,3R)-3-methyl-1-(4-methyl-4H-1,2,4-triazol-3-yl)cyclobutyl)phenyl)-2-(((S)-3-methylpiperidin-1-yl)methyl)-4-(trifluoromethyl)-1,6-dihydro-7H-pyrrolo[2,3-c]pyridin-7-one]", "Ki": "< 50"}, {"smiles": "Cn1cnnc1C1(c2cccc(-n3cc(C(F)(F)F)c4cc(CN5CC6CC5CC6(F)F)[nH]c4c3=O)c2)CCC1", "note": "(stereo not shown) [Compound T105, 2-[(5,5-difluoro-2-azabicyclo[2.2.1]heptan-2-yl)methyl]-6-[3-[1-(4-methyl-1,2,4-triazol-3-yl)cyclobutyl]phenyl]-4-(trifluoromethyl)-1H-pyrrolo[2,3-c]pyridin-7-one]", "Ki": "< 50"}, {"smiles": "Cn1cnnc1C1(c2cccc(-n3cc(C(F)(F)F)c4cc(CN5CC(F)CC(CO)C5)[nH]c4c3=O)c2)CCC1", "note": "(stereo not shown) [Compound T106, 2-[[3-fluoro-5-(hydroxymethyl)-1-piperidyl]methyl]-6-[3-[1-(4-methyl-1,2,4-triazol-3-yl)cyclobutyl]phenyl]-4-(trifluoromethyl)-1H-pyrrolo[2,3-c]pyridin-7-one]", "Ki": "< 50"}, {"smiles": "CO[C@@H]1CCN(Cc2cc3c(C(F)(F)F)cn(-c4cccc(C5(c6nncn6C)CCC5)c4)c(=O)c3[nH]2)C[C@@H]1F", "note": "[Compound T107, 2-(((3S,4R)-3-fluoro-4-methoxypiperidin-1-yl)methyl)-6-(3-(1-(4-methyl-4H-1,2,4-triazol-3-yl)cyclobutyl)phenyl)-4-(trifluoromethyl)-1,6-dihydro-7H-pyrrolo[2,3-c]pyridin-7-one]", "Ki": "< 50"}, {"smiles": "CO[C@H]1CCN(Cc2cc3c(C(F)(F)F)cn(-c4cccc(C5(c6nncn6C)CCC5)c4)c(=O)c3[nH]2)C[C@H]1F", "note": "[Compound T108, 2-(((3R,4S)-3-fluoro-4-methoxypiperidin-1-yl)methyl)-6-(3-(1-(4-methyl-4H-1,2,4-triazol-3-yl)cyclobutyl)phenyl)-4-(trifluoromethyl)-1,6-dihydro-7H-pyrrolo[2,3-c]pyridin-7-one]", "Ki": "< 50"}, {"smiles": "C[C@H]1CN(Cc2cc3c(C(F)(F)F)cn(-c4cccc(C5(c6nncn6C)CCC5)c4)c(=O)c3[nH]2)CCC1(F)F", "note": "[Compound T110, 2-[[(3S)-4,4-difluoro-3-methyl-1-piperidyl]methyl]-6-[3-[1-(4-methyl-1,2,4-triazol-3-yl)cyclobutyl]phenyl]-4-(trifluoromethyl)-1H-pyrrolo[2,3-c]pyridin-7-one]", "Ki": "< 50"}, {"smiles": "Cn1cnnc1C1(c2cccc(-n3cc(C(F)(F)F)c4cc(CN5CCC(C(F)F)CC5)[nH]c4c3=O)c2)CCC1", "note": "[Compound T112, 2-[[4-(difluoromethyl)-1-piperidyl]methyl]-6-[3-[1-(4-methyl-1,2,4-triazol-3-yl)cyclobutyl]phenyl]-4-(trifluoromethyl)-1H-pyrrolo[2,3-c]pyridin-7-one]", "Ki": "< 50"}, {"smiles": "C[C@@H]1CCN(Cc2cc3c(C(F)(F)F)cn(-c4cccc(C5(c6nncn6C)CCC5)c4)c(=O)c3[nH]2)CC1(F)F", "note": "[Compound T115, (R)-2-((3,3-difluoro-4-methylpiperidin-1-yl)methyl)-6-(3-(1-(4-methyl-4H-1,2,4-triazol-3-yl)cyclobutyl)phenyl)-4-(trifluoromethyl)-1,6-dihydro-7H-pyrrolo[2,3-c]pyridin-7-one]", "Ki": "50 to 100"}, {"smiles": "C[C@H]1CCN(Cc2cc3c(C(F)(F)F)cn(-c4cccc(C5(c6nncn6C)CCC5)c4)c(=O)c3[nH]2)CC1(F)F", "note": "[Compound T116, (S)-2-((3,3-difluoro-4-methylpiperidin-1-yl)methyl)-6-(3-(1-(4-methyl-4H-1,2,4-triazol-3-yl)cyclobutyl)phenyl)-4-(trifluoromethyl)-1,6-dihydro-7H-pyrrolo[2,3-c]pyridin-7-one]", "Ki": "50 to 100"}, {"smiles": "CCN(CC)Cc1cc2c(C(F)(F)F)cn(-c3cccc([C@]4(c5nncn5C)C[C@@H](OC)C4)c3)c(=O)c2[nH]1", "note": "[Compound T117, 2-((diethylamino)methyl)-6-(3-((1s,3s)-3-methoxy-1-(4-methyl-4H-1,2,4-triazol-3-yl)cyclobutyl)phenyl)-4-(trifluoromethyl)-1,6-dihydro-7H-pyrrolo[2,3-c]pyridin-7-one]", "Ki": "< 50"}, {"smiles": "CCN(CC)Cc1cc2c(C(F)(F)F)cn(-c3cccc([C@]4(c5nncn5C)C[C@H](OC)C4)c3)c(=O)c2[nH]1", "note": "[Compound T118, 2-((diethylamino)methyl)-6-(3-((1r,3r)-3-methoxy-1-(4-methyl-4H-1,2,4-triazol-3-yl)cyclobutyl)phenyl)-4-(trifluoromethyl)-1,6-dihydro-7H-pyrrolo[2,3-c]pyridin-7-one]", "Ki": "< 50"}, {"smiles": "Cn1cnnc1C1(c2cccc(-n3cc(C(F)(F)F)c4cc(CN5CCC[C@]6(CCOC6)C5)[nH]c4c3=O)c2)CCC1", "note": "[Compound T123, (S)-2-((2-oxa-7-azaspiro[4.5]decan-7-yl)methyl)-6-(3-(1-(4-methyl-4H-1,2,4-triazol-3-yl)cyclobutyl)phenyl)-4-(trifluoromethyl)-1,6-dihydro-7H-pyrrolo[2,3-c]pyridin-7-one]", "Ki": "< 50"}, {"smiles": "Cn1cnnc1C1(c2cccc(-n3cc(C(F)(F)F)c4cc(CN5CCC[C@@]6(CCOC6)C5)[nH]c4c3=O)c2)CCC1", "note": "[Compound T124, (R)-2-((2-oxa-7-azaspiro[4.5]decan-7-yl)methyl)-6-(3-(1-(4-methyl-4H-1,2,4-triazol-3-yl)cyclobutyl)phenyl)-4-(trifluoromethyl)-1,6-dihydro-7H-pyrrolo[2,3-c]pyridin-7-one]", "Ki": "100 to 500"}, {"smiles": "Cn1cnnc1C1(c2cccc(-n3cc(C(F)(F)F)c4cc(CN5CCC6(CCOC6)CC5)[nH]c4c3=O)c2)CCC1", "note": "[Compound T125, 2-((2-oxa-8-azaspiro[4.5]decan-8-yl)methyl)-6-(3-(1-(4-methyl-4H-1,2,4-triazol-3-yl)cyclobutyl)phenyl)-4-(trifluoromethyl)-1,6-dihydro-7H-pyrrolo[2,3-c]pyridin-7-one]", "Ki": "< 50"}, {"smiles": "CC1CC(c2cc(C(N)=O)cc(-n3cc(C(F)(F)F)c4cc(CN5CCC[C@H](C)C5)[nH]c4c3=O)c2)(c2nncn2C)C1", "note": "(stereo partly drawn) [Compound T127, 3-[3-methyl-1-(4-methyl-1,2,4-triazol-3-yl)cyclobutyl]-5-[2-[[(3S)-3-methyl-1-piperidyl]methyl]-7-oxo-4-(trifluoromethyl)-1H-pyrrolo[2,3-c]pyridin-6-yl]benzamide]", "Ki": "< 50"}]}]}
